Reference: patent US8552000B2, “Therapeutic agent for senile dementia” (Dainippon Sumitomo Pharma Co., Ltd., priority 2003, dated 2013)

Test system: scopolamine-induced cognitive/memory dysfunction models
Test: one step-through passive avoidance test, scopolamine-induced amnesia
Format: in vivo, Male Wistar rats
Protocol: Male Wistar rats (7 weeks old) were used. As a test medicament, (1R,2S,3R,4S)—N-|(1R,2R)-2-[4-(1,2-benzisothiazol-3-yl)-1-piperazinyl-methyl]-1-cyclohexylmethyl]-2,3-bicycl[2.2.1]heptanedicarboxylmide (Compound A) was suspended in 0.5% methyl cellulose (MC) solution. As an agent for inducing amnesia, scopolamine (manufactured by Wako Pure Chemical Industries, Ltd., product No. 198-07901), which is an acethylcoline receptor blocker, was dissolved in saline solution (manufactured by TERUMO CORPORATION). Compound A at a dose of 3 mg/kg or 30 mg/kg, or 0.5% MC as a control was orally administered to the animals one hour prior to the training step in the one step-through passive avoidance test, and then, scopolamine at a dose of 0.5 mg/kg or a saline solution as a control was subcutaneously administered to the animals 30 minutes prior to the training step. The volume of each solution to be administered was 5 ml/kg each.
The one step-through passive avoidance test in rats was carried out in the following manners with using an apparatus consisting of a light-dark box and an electric stimulator (manufactured by O'hara & Co., Ltd., product no. PA-2030A) as an experimental apparatus. Namely, on Day 1, after the medicament and the agent for inducing amnesia were administered, the rats were put into the light box of the experimental apparatus where the back of each rat was directed to the dark box. Then, 10 seconds later, a guillotine door set at the border between the dark box and the light box was opened. Due to the habits of the rats, once the rats entered into the dark box, the guillotine door was quickly closed. At three seconds after the entering into the dark box, an electroconvulsive shock (0.5 mA, for 3 seconds) was given to the rats. Again, the guillotine door was opened, and after the rats spontaneously returned to the light box, the animals were transferred into the home cage. The period between the time just after the guillotine door was opened and the time at which the rats entered into the dark box was measured as a step-through latency.
On Day 2 of the experiment, a test was carried out about 24 hours after the training. The procedures of the test were carried out in the same manner to the training step except that an electroconvulsive shock was not given. The step-through latency in the test was measured up to 300 seconds, and the step-through latency over 300 seconds was regarded as 300 seconds. FIG. 1 and FIG. 2 show the effects of Compound A on the scopolamine-induced cognitive/memory dysfunction models in the one step-through passive avoidance test when it was orally administered at a dosage of 3 mg/kg or 30 mg/kg. […] The number of the animals was 15 per group, and the data was expressed in mean±SEM.

SMILES	step-through latency during the training (Compound A 3 mg/kg orally one hour prior to training, scopolamine 0.5 mg/kg s.c. 30 minutes prior, vs 0.5% MC+scopolamine)	step-through latency during the test (Compound A 30 mg/kg orally plus scopolamine 0.5 mg/kg s.c., test about 24 hours after training, vs 0.5% MC+scopolamine)	improving effect of scopolamine-induced cognitive/memory dysfunctions (overall finding of the passive avoidance test in rats, oral administration)	step-through latency during the training (scopolamine 0.5 mg/kg s.c. alone (with 0.5% MC), vs saline solution)	step-through latency during the test (scopolamine 0.5 mg/kg s.c. alone (with 0.5% MC), vs saline solution, about 24 hours after training)
O=C1[C@@H]2[C@@H]3CC[C@@H](C3)[C@@H]2C(=O)N1C[C@@H]1CCCC[C@H]1CN1CCN(c2nsc3ccccc23)CC1 [Compound A]	slightly shortened	significantly extended	exhibited an improving effect	–	–
CN1[C@@H]2C[C@@H](OC(=O)[C@H](CO)c3ccccc3)C[C@H]1[C@@H]1O[C@@H]12 [scopolamine, reference compound]	–	–	–	did not affect	significantly shorter
